From patent US20250017952A1, “ANTIFUNGAL COMPOUND, COMPOSITION AND USES THEREOF” (SASTRA DEEMED UNIVERSITY, priority 2021, published 2025)
Values joined by “and” are separate entries in the source; they are usually repeats but may differ in a detail not shown here. Equal values may be shown once. “Also recorded” adds a separate entry of the source.

Legend:
[1] = test system: C. albicans virulence genes (biofilm, hyphae, drug resistance); test: RNAseq differential expression analysis; assay type: cell-based, Candida albicans; conditions: treated vs untreated
From the text: A cutoff absolute value of log fold change >1 (2-fold change) was used. Adjusted P value <0.05 (c) Venn diagram illustrating the degree of overlap between various virulence genes (Biofilm Inducing (BI); Hyphal Inducing (HI); and Drug Resistance (DR) in C. albicans under drug (Cangrelor) treated and untreated conditions.
TRY6, FYV5 (Pentland et al., 2018; Murillo et al., 2005; Nett et al., 2009a), drug-resistance genes MAK1 and RPP1 (Nett et al., 2009b; Levitin & Whiteway, 2007a) and upregulation of the genes, GAL and MAF1 that negatively regulates (repressors) the biofilm phenotype in C. albicans (Nobile et al., 2012). […] In Candida albicans, the potential shift from yeast to hypha is a route cause to host invasion and symbiotic relationship with other pathogens, where the data was significant to show downregulation of hyphal-specific genes such as ECE1, RAS, NDT80 (Moyes et al., 2016). […] This observation was very crucial to the inventor's claim that the compound, Cangrelor could potentiate the anti-fungal susceptibility (Moyes et al., 2016; Maglott et al., 2007b; Levitin & Whiteway, 2007b; Chaudhuri et al., 2011; Singh et al., 2011). Taken together, Cangrelor systematically downregulate the virulence features to potentially curb the pathogenesis of C. albicans.

[2] = test system: C. albicans biofilm, hyphal and virulence genes; test: qRTPCR of biofilm, hyphal and virulence genes; assay type: cell-based, Candida albicans
Protocol: FIG. 8 illustrates the qRTPCR analysis of biofilm, hyphal and virulence genes in C. albicans biofilms treated with Cangrelor using 18srRNA as the housekeeping gene. Briefly, after 24 h incubation, planktonic cells were removed, and biofilm cells were collected, and RNA was extracted for the treated and untreated groups. […] The data was obtained in triplicates and analysis was performed by the 2^−ΔΔCt method.

[3] = test system: Candida albicans SC5314, ATCC90028, clinical isolate BF1; test: Germ tube / filamentation inhibition, phase contrast; assay type: cell-based; conditions: for germ tube / hyphal morphogenesis, time-dependent: till 6 h, three strains
Protocol: FIG. 6 illustrates the phase contrast images of germ tube inhibition of Candida albicans for the three strains by cangrelor in a time-dependent manner till 6 h. The untreated C. albicans show the hyphal development from the 2nd hour, where the yeast cells adhere, and at the 6 h, the hyphal is elongated and branched.
FIG. 7 illustrates the phase contrast images of filamentation inhibition of Candida albicans by cangrelor after 24 h of inhibition.
A time-dependent mapping of the hyphal development was done until 6 h upon Cangrelor treatment and compared to the untreated control for the three strains of C. albicans, including the standard strains-SC5314 and ATCC90028, and clinical isolate, BF1. […] The morphogenesis switch inhibition is essential as the primary virulence characteristic of C. albicans is hyphal formation. The hyphal form is necessary for biofilm formation and polymicrobial interaction to invade the host cell and overcome the immune response.

[4] = test system: C. albicans SC5314 biofilm; test: SEM analysis of biofilm; assay type: cell-based, Candida albicans
Protocol: FIG. 5 illustrates Cangrelor abolish C. albicans SC5314 biofilm. An overnight culture of C. albicans was grown overnight at 30° C. in YPD liquid media. C. albicans cells (1.5×10^7 cells/ml) were seeded on the glass slides in the presence or absence of the ALS-3 drug-like chemotype, Cangrelor in YPD and incubated at 37° C. for 24 h. […] Statistical significance was determined using the unpaired Student's t test (P<0.0001).

[5] = test system: C. albicans SC5314 biofilm; test: CLSM analysis of biofilm with COMSTAT quantification; assay type: cell-based, Candida albicans; conditions: for live/dead fluorescence of cells in CLSM: green = live, red = dead
From the text: FIG. 4a illustrates CLSM analyses of biofilm inhibitory effects of Cangrelor against C. albicans SC5314. […] The presence of red fluorescence in fluconazole treatment confirms its fungicidal effect. The COMSTAT analysis was done to quantify the biofilm coverage, average thickness, and biovolume from Z-stacks obtained from at least 5 regions of the glass slides, using a confocal laser scanning microscope (Olympus FLUOVIEW, FV1000) with a 40× objective lens (FIG. 4b).

[6] = test system: Candida albicans on T24 bladder epithelial cells; test: Adhesion and invasion of C. albicans in monolayer T24 bladder epithelial cells; assay type: cell-based
From the text: FIG. 10 illustrates the microscopic images of the monolayer T24 bladder epithelial cells infected with Candida albicans with and without Cangrelor treatment. […] The yeast cells (circled in white) were maintained upon the treatment and thereby couldn't adhere and invade the epithelial cells.

C. albicans biofilm = test: Biofilm inhibition, Crystal Violet (CV) assay; assay type: cell-based, Candida albicans; conditions: crystal violet biofilm biomass
Protocol: (§1) FIG. 3 illustrates antifungal and antibiofilm evaluation against C. albicans at varying concentrations: The effect of the Cangrelor on planktonic cells was determined by measuring the OD at 595 nm. A wide range of concentrations ranging from 100 μM-0.47 pM were considered for evaluation. Biofilm inhibitory effects were determined by measuring the biofilm biomass using the Crystal Violet (CV) assay. The dose-response curves were plotted by fitting the inhibition data using a 4-parameter logistic equation. Cangrelor inhibited biofilms at a minimum concentration of 120 pM

[7] = test system: C. albicans planktonic cells; test: Planktonic growth, OD at 595 nm; assay type: cell-based, Candida albicans; conditions: 100 μM-0.47 pM tested
Protocol: as §1

## CSCCNc1nc(SCCC(F)(F)F)nc2c1ncn2[C@@H]1O[C@H](COP(=O)(O)OP(=O)(O)C(Cl)(Cl)P(=O)(O)O)[C@@H](O)[C@H]1O [Cangrelor]
[1]
  number of biofilm inducing genes downregulated: more than 90 genes
[2]; 240 pM, 24 h biofilm cells
  expression of adhesion and invasion genes: downregulated
[2]; qRTPCR
  ECE1 gene expression: downregulation
  ERG11 gene expression: downregulated
[2]; qRTPCR, 2^−ΔΔCt
  PLB1 expression downregulation: ~2 log fold
[2]; qRTPCR, 18srRNA housekeeping
  expression of transcriptional regulators of biofilm and hyphal genes, adhesin and hyphal specific protein: downregulated
[3]; 24 h
  filamentation after 24 h: maintained the yeast form
[3]
  germ tube / hyphal morphogenesis, time-dependent: inhibits the hyphal morphogenesis
[3]; listed as cangrelor
  germ tube / hyphal morphogenesis, time-dependent: did not switch to the hyphal form
[4]; 120 pM vs untreated control
  filamentation in SEM: abolished filamentation
[4]; 120 pM, 24 h, YPD, untreated more than 1200 cells
  number of cells in SEM: < 56 cells and < 60 cells
[5]; C. albicans SC5314
  biofilm structure in CLSM images: no biofilm formation
[5]; COMSTAT, control 1.2
  roughness coefficient: 1.91
[5]; COMSTAT, control 8.73 μm
  diffusion distance: 0.18 μm
[5]; COMSTAT, control 28.64 μm
  average biofilm thickness: 0.5 μm
[5]; COMSTAT, untreated 25.96 μm
  biofilm biomass: significant reduction
[5]
  live/dead fluorescence of cells in CLSM: live cells
[6]
  adherence and invasion of epithelial cells: reducing adherence and invasion
  hyphal morphogenesis on epithelial cells: inhibited hyphal morphogenesis
C. albicans biofilm; Candida albicans, read-out: BIC50 (50% Biofilm Inhibition Concentration)
  IC50: 0.12 nM
C. albicans biofilm
  concentration at which biofilms were inhibited (minimum / very low concentration): 120 pM
[7]
  growth of C. albicans (planktonic): without affecting growth; also recorded: not inhibited

## OC(Cn1cncn1)(Cn1cncn1)c1ccc(F)cc1F [fluconazole]
[5]
  live/dead fluorescence of cells in CLSM: dead cells
